Tested on: MV-4-11 cells
Assay: Gene expression microarray analysis (Affymetrix PrimeView) and GSEA
Format: cell-based, human
Parameters: RFU PODN (11730768_x_at) / Fold change /veh PODN (11730768_x_at) / RFU LINC00158 (11744669_a_at) / Fold change /veh LINC00158 (11744669_a_at) / RFU DUSP10 (11751237_a_at) / Fold change /veh DUSP10 (11751237_a_at) / RFU ID3 (11757404_x_at) / Fold change /veh ID3 (11757404_x_at) / RFU PLEKHG5 (11737974_s_at) / Fold change /veh PLEKHG5 (11737974_s_at) / RFU LRRC4B (11730491_at) / Fold change /veh LRRC4B (11730491_at) / RFU GIMAP4 (11747438_a_at) / Fold change /veh GIMAP4 (11747438_a_at) / RFU KRT8 (11758183_x_at) / Fold change /veh KRT8 (11758183_x_at) / RFU CNN1 (11734310_a_at) / Fold change /veh CNN1 (11734310_a_at) / RFU VPS37D (11726825_at) / Fold change /veh VPS37D (11726825_at) / RFU C10orf10 (11716522_x_at) / Fold change /veh C10orf10 (11716522_x_at) / RFU KIR2DL2 /// KIR2DL4 /// KIR2DL5A /// KIR2DL5B /// KIR2DS1 /// KIR2DS2 /// KIR2DS3 /// KIR2DS4 /// KIR3DL3 /// KIR3DL3 /// KIR3DS1 (11738374_at) / Fold change /veh KIR2DL2 /// KIR2DL4 /// KIR2DL5A /// KIR2DL5B /// KIR2DS1 /// KIR2DS2 /// KIR2DS3 /// KIR2DS4 /// KIR3DL3 /// KIR3DL3 /// KIR3DS1 (11738374_at) / RFU C1QL1 (11718748_at) / Fold change /veh C1QL1 (11718748_at) / RFU TMPRSS4 (11747572_a_at) / Fold change /veh TMPRSS4 (11747572_a_at) / RFU HAMP (11756126_x_at) / Fold change /veh HAMP (11756126_x_at) / RFU RNFT2 (11725882_a_at) / Fold change /veh RNFT2 (11725882_a_at) / RFU NR4A2 (11747474_a_at) / Fold change /veh NR4A2 (11747474_a_at) / RFU ABCC12 (11746883_a_at) / Fold change /veh ABCC12 (11746883_a_at) / RFU TMEM136 (11760407_x_at) / Fold change /veh TMEM136 (11760407_x_at) / RFU CLDN22 /// WWC2 (11732394_at) / Fold change /veh CLDN22 /// WWC2 (11732394_at) / RFU HLA-DPB1 (11760878_x_at) / Fold change /veh HLA-DPB1 (11760878_x_at) / RFU SPINT1 (11716480_a_at) / Fold change /veh SPINT1 (11716480_a_at) / RFU GAP43 (11754022_s_at) / Fold change /veh GAP43 (11754022_s_at) / RFU A4GNT (11735810_at) / Fold change /veh A4GNT (11735810_at) / RFU PRB3 (11715151_x_at) / Fold change /veh PRB3 (11715151_x_at) / RFU TUBB4B (11761932_at) / Fold change /veh TUBB4B (11761932_at) / RFU CAPN14 (11732068_a_at) / Fold change /veh CAPN14 (11732068_a_at) / RFU TMCC2 (11721928_a_at) / Fold change /veh TMCC2 (11721928_a_at) / RFU IRGQ (11745062_a_at) / Fold change /veh IRGQ (11745062_a_at) / RFU FAM174B (11720279_a_at) / Fold change /veh FAM174B (11720279_a_at) / RFU TMPRSS4 (11748680_a_at) / Fold change /veh TMPRSS4 (11748680_a_at) / RFU FAM212B (11763350_a_at) / Fold change /veh FAM212B (11763350_a_at) / RFU PLEKHG5 (11743358_a_at) / Fold change /veh PLEKHG5 (11743358_a_at) / RFU ZSCAN30 (11745921_a_at) / Fold change /veh ZSCAN30 (11745921_a_at) / RFU CMKLR1 (11741424_a_at) / Fold change /veh CMKLR1 (11741424_a_at) / RFU LOC101060620 /// MAPK8IP1 (11723275_at) / Fold change /veh LOC101060620 /// MAPK8IP1 (11723275_at) / RFU SPTSSB (11747773_x_at) / Fold change /veh SPTSSB (11747773_x_at) / RFU PRSS12 (11739890_at) / Fold change /veh PRSS12 (11739890_at) / RFU BIN1 (11741810_x_at) / Fold change /veh BIN1 (11741810_x_at) / RFU WNT11 (11732464_a_at) / Fold change /veh WNT11 (11732464_a_at) / RFU C10orf10 (11716521_a_at) / Fold change /veh C10orf10 (11716521_a_at) / RFU C5orf56 (11738089_at) / Fold change /veh C5orf56 (11738089_at) / RFU CYB561 (11721691_x_at) / Fold change /veh CYB561 (11721691_x_at) / RFU ANKRD19P (11752326_a_at) / Fold change /veh ANKRD19P (11752326_a_at) / RFU OR2T12 /// OR2T33 /// OR2T8 (11738714_s_at) / Fold change /veh OR2T12 /// OR2T33 /// OR2T8 (11738714_s_at) / RFU VCAN (11748164_a_at) / Fold change /veh VCAN (11748164_a_at) / RFU JSRP1 (11732532_at) / Fold change /veh JSRP1 (11732532_at) / RFU KRTAP10-11 (11738290_x_at) / Fold change /veh KRTAP10-11 (11738290_x_at) / RFU MYO3A (11730013_a_at) / Fold change /veh MYO3A (11730013_a_at) / RFU EBF3 (11725865_a_at) / Fold change /veh EBF3 (11725865_a_at) / RFU CAMK2N1 (11719241_x_at) / Fold change /veh CAMK2N1 (11719241_x_at) / RFU C5orf56 (11738088_a_at) / Fold change /veh C5orf56 (11738088_a_at) / RFU OLFML3 (11715873_a_at) / Fold change /veh OLFML3 (11715873_a_at) / RFU LOC100653217 /// NTM (11731650_a_at) / Fold change /veh LOC100653217 /// NTM (11731650_a_at) / RFU MAPK11 (11762145_a_at) / Fold change /veh MAPK11 (11762145_a_at) / RFU FIZ1 (11724087_x_at) / Fold change /veh FIZ1 (11724087_x_at) / RFU OASL (11726364_x_at) / Fold change /veh OASL (11726364_x_at) / RFU SOX15 (11748057_x_at) / Fold change /veh SOX15 (11748057_x_at) / RFU CD79A (11719716_a_at) / Fold change /veh CD79A (11719716_a_at) / RFU HIST1H1D (11736915_at) / Fold change /veh HIST1H1D (11736915_at) / RFU CASKIN2 (11723855_a_at) / Fold change /veh CASKIN2 (11723855_a_at) / RFU LOC730098 (11760151_x_at) / Fold change /veh LOC730098 (11760151_x_at) / RFU OR4N2 (11742367_at) / Fold change /veh OR4N2 (11742367_at) / RFU PRRT2 (11749266_a_at) / Fold change /veh PRRT2 (11749266_a_at) / RFU SNX32 (11753110_a_at) / Fold change /veh SNX32 (11753110_a_at) / RFU CDHR5 (11726645_a_at) / Fold change /veh CDHR5 (11726645_a_at) / RFU RCAN1 (11760418_a_at) / Fold change /veh RCAN1 (11760418_a_at) / RFU FAM167A (11723789_a_at) / Fold change /veh FAM167A (11723789_a_at) / RFU FAM26E (11764081_at) / Fold change /veh FAM26E (11764081_at) / RFU ISYNA1 (11749810_s_at) / Fold change /veh ISYNA1 (11749810_s_at) / RFU ACY1 (11761880_at) / Fold change /veh ACY1 (11761880_at) / RFU 11764098_at / Fold change /veh 11764098_at / RFU SAMD14 (11745864_x_at) / Fold change /veh SAMD14 (11745864_x_at) / RFU NPB (11741838_a_at) / Fold change /veh NPB (11741838_a_at) / RFU TMPRSS6 (11731388_a_at) / Fold change /veh TMPRSS6 (11731388_a_at) / RFU KRTAP10-2 (11738614_at) / Fold change /veh KRTAP10-2 (11738614_at) / RFU ARHGAP8 /// PRR5-ARHGAP8 (11727945_x_at) / Fold change /veh ARHGAP8 /// PRR5-ARHGAP8 (11727945_x_at) / RFU KRTAP5-7 /// NADSYN1 (11734609_at) / Fold change /veh KRTAP5-7 /// NADSYN1 (11734609_at) / RFU RASL12 (11751679_a_at) / Fold change /veh RASL12 (11751679_a_at) / RFU CDKN2B (11736163_a_at) / Fold change /veh CDKN2B (11736163_a_at) / RFU PRF1 (11729649_at) / Fold change /veh PRF1 (11729649_at) / RFU, ZNF638 /// ZNF638-IT1 / Fold change vs veh, ZNF638 /// ZNF638-IT1 / RFU, PANK3 / Fold change vs veh, PANK3 / RFU, SH3YL1 / Fold change vs veh, SH3YL1 / RFU, ZEB2 / Fold change vs veh, ZEB2 / RFU, NRIP1 / Fold change vs veh, NRIP1 / RFU, PTTG1IP / Fold change vs veh, PTTG1IP / RFU, CAPN2 / Fold change vs veh, CAPN2 / RFU, MED14 / Fold change vs veh, MED14 / RFU, SNORA58 / Fold change vs veh, SNORA58 / RFU, C1orf63 / Fold change vs veh, C1orf63 / RFU, LRRFIP1 / Fold change vs veh, LRRFIP1 / RFU, NDUFAF7 / Fold change vs veh, NDUFAF7 / RFU, SLC12A2 / Fold change vs veh, SLC12A2 / RFU, IBTK / Fold change vs veh, IBTK / RFU, ESF1 / Fold change vs veh, ESF1 / Fold change vs veh, TMEM50B / RFU, TAOK1 / Fold change vs veh, TAOK1 / RFU, ACBD3 / Fold change vs veh, ACBD3 / RFU, TMA16 / Fold change vs veh, TMA16 / RFU, RWDD3 / Fold change vs veh, RWDD3 / RFU, BCAT1 / Fold change vs veh, BCAT1 / RFU, EDEM3 / Fold change vs veh, EDEM3 / RFU, TMEM33 / Fold change vs veh, TMEM33 / RFU, WDR75 / Fold change vs veh, WDR75 / RFU, AHCTF1 / Fold change vs veh, AHCTF1 / RFU, TFRC / Fold change vs veh, TFRC / RFU, ZDHHC17 / Fold change vs veh, ZDHHC17 / RFU, NOM1 / Fold change vs veh, NOM1 / RFU, ARL8B / Fold change vs veh, ARL8B / RFU, ZBTB11 / Fold change vs veh, ZBTB11 / RFU, TAMM41 / Fold change vs veh, TAMM41 / RFU, KIAA1704 /// LOC100996395 / Fold change vs veh, KIAA1704 /// LOC100996395 / RFU, ING1 / Fold change vs veh, ING1 / RFU, TRMT61B / Fold change vs veh, TRMT61B / RFU, FUBP3 / Fold change vs veh, FUBP3 / RFU, TP53 / Fold change vs veh, TP53 / RFU, TNKS2 / Fold change vs veh, TNKS2 / RFU, ZFP14 / Fold change vs veh, ZFP14 / RFU, ACTR2 / Fold change vs veh, ACTR2 / RFU, PPP3R1 / Fold change vs veh, PPP3R1 / RFU, PIK3R1 / Fold change vs veh, PIK3R1 / RFU, HNRNPA1 / Fold change vs veh, HNRNPA1 / RFU, RNF170 / Fold change vs veh, RNF170 / RFU, ZNF28 / Fold change vs veh, ZNF28 / RFU, RNGTT / Fold change vs veh, RNGTT / RFU, OGT / Fold change vs veh, OGT / RFU, BRD1 / Fold change vs veh, BRD1 / RFU, MARS / Fold change vs veh, MARS / RFU, ZNF655 / Fold change vs veh, ZNF655 / RFU, FAHD1 / Fold change vs veh, FAHD1 / RFU, BDP1 / Fold change vs veh, BDP1 / RFU, LRRCC1 / Fold change vs veh, LRRCC1 / RFU, ARID1A / Fold change vs veh, ARID1A / RFU, ZNF146 / Fold change vs veh, ZNF146 / RFU, ZNF330 / Fold change vs veh, ZNF330 / RFU, GPN3 / Fold change vs veh, GPN3 / RFU, C9orf123 / Fold change vs veh, C9orf123 / RFU, N4BP2L2 / Fold change vs veh, N4BP2L2 / RFU, ARFIP1 / Fold change vs veh, ARFIP1 / RFU, FAM179B / Fold change vs veh, FAM179B / RFU, BCL10 / Fold change vs veh, BCL10 / RFU, UHRF1BP1L / Fold change vs veh, UHRF1BP1L / RFU, BET1 / Fold change vs veh, BET1 / RFU, CNOT2 / Fold change vs veh, CNOT2 / RFU, ZNF268 / Fold change vs veh, ZNF268 / Fold change vs veh, ZNF507 / RFU, DGCR2 / Fold change vs veh, DGCR2 / RFU, WDSUB1 / Fold change vs veh, WDSUB1 / Fold change vs veh, HSP90B1 /// MIR3652 / RFU, ADSS / Fold change vs veh, ADSS / RFU, GK / Fold change vs veh, GK / RFU, ZNF148 / Fold change vs veh, ZNF148 / RFU, TAF9 / Fold change vs veh, TAF9 / RFU, SLC1A5 / Fold change vs veh, SLC1A5 / RFU, SLMO2 / Fold change vs veh, SLMO2 / RFU, ABCC4 / Fold change vs veh, ABCC4 / RFU, LOC101060439 /// RAP1B / Fold change vs veh, LOC101060439 /// RAP1B / RFU, RFX7 / Fold change vs veh, RFX7 / RFU, GTPBP10 / Fold change vs veh, GTPBP10 / RFU, CNEP1R1 / Fold change vs veh, CNEP1R1 / RFU, BIVM-ERCC5 /// ERCC5 / Fold change vs veh, BIVM-ERCC5 /// ERCC5 / RFU, ILF3 / Fold change vs veh, ILF3 / RFU 11762660_at / Fold change /veh 11762660_at / RFU VCAN (11757783_s_at) / Fold change /veh VCAN (11757783_s_at) / RFU DDX43 (11728927_at) / Fold change /veh DDX43 (11728927_at) / RFU KRT8 (11758188_x_at) / Fold change /veh KRT8 (11758188_x_at) / RFU NKD1 (11759106_at) / Fold change /veh NKD1 (11759106_at) / RFU SRD5A1 (11742802_a_at) / Fold change /veh SRD5A1 (11742802_a_at) / RFU TPSAB1 /// TPSB2 (11721975_s_at) / Fold change /veh TPSAB1 /// TPSB2 (11721975_s_at) / RFU GSTM3 (11746129_a_at) / Fold change /veh GSTM3 (11746129_a_at) / RFU IL23R (11737362_x_at) / Fold change /veh IL23R (11737362_x_at) / RFU TMEM51 (11727254_a_at) / Fold change /veh TMEM51 (11727254_a_at) / RFU PIWIL2 (11732686_x_at) / Fold change /veh PIWIL2 (11732686_x_at) / RFU ORM1 (11744905_x_at) / Fold change /veh ORM1 (11744905_x_at) / RFU CCDC152 (11743942_at) / Fold change /veh CCDC152 (11743942_at) / RFU ECM1 (11717891_a_at) / Fold change /veh ECM1 (11717891_a_at) / RFU IL23R (11748794_a_at) / Fold change /veh IL23R (11748794_a_at) / RFU TNFAIP8L3 (11732012_x_at) / Fold change /veh TNFAIP8L3 (11732012_x_at) / RFU MBOAT4 (11741988_at) / Fold change /veh MBOAT4 (11741988_at) / RFU 11764193_at / Fold change /veh 11764193_at / RFU TMEM53 (11763286_at) / Fold change /veh TMEM53 (11763286_at) / RFU MAGEB2 (11727129_at) / Fold change /veh MAGEB2 (11727129_at) / RFU TMEM200A (11744735_a_at) / Fold change /veh TMEM200A (11744735_a_at) / RFU CCDC152 (11751479_a_at) / Fold change /veh CCDC152 (11751479_a_at) / RFU FAM211A (11726209_a_at) / Fold change /veh FAM211A (11726209_a_at) / RFU RGS16 (11746705_a_at) / Fold change /veh RGS16 (11746705_a_at) / RFU VCAN (11755009_s_at) / Fold change /veh VCAN (11755009_s_at) / RFU RHOB (11743442_s_at) / Fold change /veh RHOB (11743442_s_at) / RFU RGS16 (11720943_a_at) / Fold change /veh RGS16 (11720943_a_at) / RFU RGS16 (11720944_at) / Fold change /veh RGS16 (11720944_at) / RFU, VPS4B / Fold change vs veh, VPS4B / RFU, CREB1 / Fold change vs veh, CREB1 / RFU, DNAJC13 / Fold change vs veh, DNAJC13 / RFU, GNAQ / Fold change vs veh, GNAQ / RFU, CDK5R1 / Fold change vs veh, CDK5R1 / RFU, ZRANB3 / Fold change vs veh, ZRANB3 / RFU, CUL4A / Fold change vs veh, CUL4A / RFU, CCNY / Fold change vs veh, CCNY / RFU, UFL1 / Fold change vs veh, UFL1 / RFU, COG3 / Fold change vs veh, COG3 / RFU, DIAPH2 / Fold change vs veh, DIAPH2 / RFU, SKA2 / Fold change vs veh, SKA2 / RFU, AFF3 / Fold change vs veh, AFF3 / RFU, LMF1 / Fold change vs veh, LMF1 / RFU, IPO11 / Fold change vs veh, IPO11 / RFU, DFFB / Fold change vs veh, DFFB / RFU, FOXP1 / Fold change vs veh, FOXP1 / RFU, CARD8 / Fold change vs veh, CARD8 / RFU, STRN3 / Fold change vs veh, STRN3 / RFU, ADK / Fold change vs veh, ADK / RFU, RASSF2 / Fold change vs veh, RASSF2 / RFU, WIPF1 / Fold change vs veh, WIPF1 / RFU, LARP1B / Fold change vs veh, LARP1B / RFU, RASA1 / Fold change vs veh, RASA1 / RFU, RB1 / Fold change vs veh, RB1 / RFU, PPFIA1 / Fold change vs veh, PPFIA1 / RFU, MAT2A / Fold change vs veh, MAT2A / RFU, CCT5 / Fold change vs veh, CCT5 / RFU, WDR92 / Fold change vs veh, WDR92 / RFU, CUX1 / Fold change vs veh, CUX1 / RFU, TTC7A / Fold change vs veh, TTC7A / RFU, TMEM135 / Fold change vs veh, TMEM135 / RFU, DEPTOR / Fold change vs veh, DEPTOR / RFU, CPM / Fold change vs veh, CPM / RFU, DNAJB6 / Fold change vs veh, DNAJB6 / RFU, CACNA2D3 / Fold change vs veh, CACNA2D3 / RFU, DTX4 / Fold change vs veh, DTX4 / RFU, TFCP2 / Fold change vs veh, TFCP2 / RFU, GMCL1 /// GMCL1P1 / Fold change vs veh, GMCL1 /// GMCL1P1 / RFU, AEBP2 / Fold change vs veh, AEBP2 / RFU, SNHG1 /// SNORD22 /// SNORD25 /// SNORD26 /// SNORD27 /// SNORD28 /// SNORD29 /// SNORD31 / Fold change vs veh, SNHG1 /// SNORD22 /// SNORD25 /// SNORD26 /// SNORD27 /// SNORD28 /// SNORD29 /// SNORD31 / Fold change (Aza/veh), C12orf56 (ProbeSet 11735607_a_at) / Fold change (ACY-1035/veh), C12orf56 (ProbeSet 11735607_a_at) / Fold change (Aza/veh), FGFR1OP (ProbeSet 11751329_s_at) / Fold change (ACY-1035/veh), FGFR1OP (ProbeSet 11751329_s_at) / Fold change (Aza/veh), VPS36 (ProbeSet 11739960_a_at) / Fold change (ACY-1035/veh), VPS36 (ProbeSet 11739960_a_at) / RFU SYPL1 (11715823_x_at) / Fold change /veh SYPL1 (11715823_x_at) / RFU IGFBP7 (11715501_s_at) / Fold change /veh IGFBP7 (11715501_s_at) / RFU REEP3 (11722064_at) / Fold change /veh REEP3 (11722064_at) / RFU IGLL1 (11728026_x_at) / Fold change /veh IGLL1 (11728026_x_at): dose or concentration left out as unconfirmed
Conditions: ProbeSet 11732277_a_at; LIST D

Nc1ncn([C@@H]2O[C@H](CO)[C@@H](O)[C@H]2O)c(=O)n1 [azacitidine]
Fold change vs veh, FOXP1: 0.59

From publication PMC5218480 (PLoS ONE, 2017)
